{
  "source": "patent EP1306084A1",
  "about": "“Compositions for the control of parasitic infestations in fish” (Alpharma AS, priority 1998, dated 1999)",
  "key": {"sea lice [1]": {"tested_on": "sea lice", "test": "Field trial: medicated feed before sea transfer, recapture of tagged fish, sea lice infection (Example 3)", "type": "in vivo, wild sea trout (Salmo trutta)", "details": "about 3 mg per fish per day for six days in feed before sea transfer; 13 treated fish caught June 20 to August 7", "procedure": "About 2,000 wild sea trout (Salmo trutta) were divided into two groups and marked with Carlin tags in two different colours (yellow or red) so that individuals of the groups could easily be distinguished from each other when observed in the water. The group with yellow Carlin tags were given feed containing hexaflumuron. The dose was about 3 mg of hexaflumuron per fish per day for six days. The feeding was done the last week before they were transferred to the sea in the beginning of May. The control group had red Carlin tags and was fed ordinary fish feed until sea transfer. Both groups of fish were transferred to the sea 200 metres from the river mouth of the Bondhus River in Hordaland in Norway. From sea transfer (May 8) until August 7, neighbouring rivers and estuaries round these rivers were examined every week, using fishing by application of high voltage and net fishing.\nTagged fish was not caught until June 20. From June 20 to August 7, 22 control fish and 13 treated fish were caught. The untreated fish were caught in the lower parts of the rivers and were heavily infected with sea lice. The 13 treated fish were exclusively caught in the estuary around the rivers (in sea water), none were caught in freshwater."}, "[2]": {"test": "Specific growth rate after sea transfer (Example 4)", "type": "in vivo, salmon (Salmo salar)", "details": "treated groups, after about 12 weeks; control group 1.79%", "procedure": "About 2,500 salmon (Salmo salar) of average weight 42 grams were treated orally with a daily dosage of 4 mg hexaflumuron per kilo fish for 5 days. The treatment was carried out in freshwater one week before the fish were transferred to sea water. In the sea water, the fish was distributed into 3 different minicages with 800-850 fish in each. At the same time 1,000 untreated fish (from a different fish farm) weighing on average 50 grams were transferred to sea in a neighbouring cage. After being transferred to sea water, the fish were exposed to natural sea lice infection. The number of lice on 10 fish from each cage were counted every third week to check if there was any difference in the number of lice in the cages. When ending the trial, about 12 weeks after the fish had been transferred to sea, the fish in each cage were weighed to check possible differences in growth (SGR, specific growth rate). The water temperature varied between 10-16°C during the trial. […] From 9 weeks on, there was no difference between the groups. The dosage rate that was used in this trial, i.e. 4 mg of hexaflumuron per kg fish per day, is very low. By increasing the dosage the protection time would probably be extended. […] The SRG was measured after about 12 weeks and it was estimated at 1.79% in the control group, and 1.95 - 2.00% in the treated groups."}, "sea lice [3]": {"tested_on": "sea lice", "test": "Injection of hexaflumuron in multivalent vaccine formulations, sea lice counts after sea water transfer (Example 10)", "type": "in vivo, salmon (Salmo salar)", "procedure": "The treatment dosage was 9 mg hexaflumuron per kg fish per day for 10 days. This is indicated by \"Groups/Timepoints\" in the figure; • Figure 2 relates to the trial in Example 2 that was carried out on Atlantic salmon (Salmo salar). […] The treatment dosage varied between 3 - 9 mg hexaflumuron and 9- 12 mg fluazuron per kg fish per day for 7 days. This is indicated by \"Groups/Timepoints\" in the diagram. […] The treated groups are compared to an untreated control group. The treatment dosage was 4 mg hexaflumuron per kg fish per day for 5 days. This is indicated by \"Groups/Timepoints\" in the figure. Cage 2 = controls, Cage 4-6 = treated groups, 16.6.97 = time point for sea transfer and 5.8.97= controls treated by bathing with deltamethrin; • Figure 4 relates to the trial described in Example 5, which was carried out on sea trout (Salmo trutta). […] The treated groups are compared with an untreated control group. The dosage for oral treatment was 4 mg hexaflumuron per kilo fish per day for 5 days, and 5 ppm hexaflumuron as a 30 minute bath treatment. This is indicated by \"Groups/Timepoints\" in the figure. Cage 1.4 = Controls, cage 1.3 = Oral treatment, cage 1.2 = Bath treatment. […] The treated groups are compared with an untreated control group, and one group that has been treated orally with teflubenzuron (10 mg/kg of teflubenzuron per kg fish per day for 7 days). The dosage for oral treatment was 5.6 mg hexaflumuron per kg fish per day for 7 days, and 5 ppm hexaflumuron as a 30 minute bath treatment. […] End of treatment: 22.10.97, Sea transfer: 23.10.97. T1 = 3 weeks post end of treatment, T2 = 5 weeks post end of treatment, T3 = 9 weeks post end of treatment, T4 = 12 weeks post end of treatment; • Figure 6 relates to the trial in Example 6 at time points 4-6, with the same trial parameters as for Figure 5. […]\nFollowing transfer to sea water, the fish were exposed to natural sea lice infestation. Every three weeks lice were counted on 10 fish of each group to assess if the number of lice between the various groups differed. […]"}, "[4]": {"details": "injected in vaccine formulations"}},
  "data": [
    {"smiles": "O=C(NC(=O)c1c(F)cccc1F)Nc1cc(Cl)c(OC(F)(F)C(F)F)c(Cl)c1", "note": "[hexaflumuron]", "values": [
      {"measurement": "signs of sea lice infections in recaptured fish", "setting": "sea lice [1]", "value": "None of the treated fish showed signs of sea lice infections"},
      {"measurement": "SGR (specific growth rate)", "setting": "[2]", "value": "1.95 - 2.00%"},
      {"measurement": "number of sea lice versus control", "setting": "sea lice [3]; 9 and 12 weeks after sea water transfer (T3 and T4), 3 formulations, 25 mg per ml vaccine", "value": "significantly lower"},
      {"measurement": "protection against recurrent infestation after injection", "setting": "sea lice [3]; [4]", "value": "≥ 18", "unit": "weeks"},
      {"measurement": "protection against recurrent infestation after sea water transfer", "setting": "sea lice [3]; [4]", "value": "at least 12 weeks"}
    ]}
  ]
}
